Data taken from ChEMBL document CHEMBL5233256, “Flavaglines as natural products targeting eIF4A and prohibitins: From traditional Chinese medicine to antiviral activity against coronaviruses” (Eur J Med Chem, 2020).

Key:
SARS-CoV-2 = assay: Antiviral activity against SARS-CoV-2 USA_WA1/2020 infected in African green monkey Vero E6 cells assessed as reduction in virus replication preincubated with cell for 2 hrs followed by viral infection for 1 hr and measured after 48 hrs by RT-qPCR method; format: functional; conditions: Severe acute respiratory syndrome coronavirus 2, USA_WA1/2020, Vero C1008; time 51 hrs
Poliovirus 1 = assay: Antiviral activity against human poliovirus 1 infected in human MRC5 cells incubated for 1 hr by crystal violet staining based plaque assay; format: functional, organism-based; conditions: Enterovirus C, MRC5, 1 h
[1] = tested on: Middle East respiratory syndrome-related coronavirus; assay: Antiviral activity against MERS-COV infected in human MRC5 cells incubated for 1 hr by crystal violet staining based plaque assay; format: functional, organism-based
Human coronavirus 229E = assay: Antiviral activity against hCoV-229E infected in human MRC5 cells incubated for 1 hr by crystal violet staining based plaque assay; format: functional, organism-based
Hepatitis C virus = assay: Antiviral activity against HCV infected in human Huh-7.5.1 cells assessed as reduction in viral infection incubated for 48 hrs; format: functional, organism-based, Hepacivirus hominis; conditions: Huh-7.5.1, 48 h

## COc1cc2c(c(OC)n1)[C@]1(O)[C@H](O)[C@H](CN(C)C)[C@@H](c3ccccc3)[C@]1(c1ccc(C#N)cc1)O2 [ZOTATIFIN]
SARS-CoV-2
  IC90: 37 nM

## COC(=O)[C@H]1[C@@H](O)[C@@]2(O)c3c(OC)cc(O[C@@H]4O[C@@H]([C@H](O)CO)CO[C@H]4OC)cc3O[C@@]2(c2ccc(OC)cc2)[C@@H]1c1ccccc1 [SILVESTROL]
Poliovirus 1
  EC50: 20 nM
[1]; MRC5, 1 h
  EC50: 1.3 nM
[1]; MRC5, time 1 hrs
  EC90: 27 nM
Human coronavirus 229E; MRC5, 1 h
  EC50: 3 nM
Human coronavirus 229E; MRC5, time 1 hrs
  EC90: 12 nM

## COc1ccc([C@@]23Oc4cc(OC)cc(OC)c4[C@]2(O)[C@H](O)[C@H](C(=O)N(C)C)[C@H]3c2ccccc2)cc1 [ROCAGLAMIDE]
Hepatitis C virus
  EC50: 4 nM

## COc1ccc([C@@]23Oc4cc(OC)cc(OC)c4[C@]2(O)c2nc4n(c(=O)c2[C@H]3c2ccccc2)CCC4)cc1
Hepatitis C virus
  EC50: 0.04 nM
